In patent US4560758A, “Process for preparing pyrrolo[1,2-a]imidazoles and imidazo[1,2-a]pyridines” (Pennwalt Corporation, priority 1984, dated 1985):
Values joined by “and” are separate entries in the source; they are usually repeats but may differ in a detail not shown here. Equal values may be shown once. Where a name gives a salt, the structure may show the parent alone.

How the values were obtained:
[1] = test system: antibody secreting cells in the spleen; experiment: Kennedy Plaque Assay (humoral immune system depressed by 6-mercaptopurine; number of plaques); assay type: in vivo; details: for change in vivo at 6.25 mg/kg: ip, 60 mg/Kg of 6 MP plus 6.25 mg/Kg (i.p.) of compound, read-out: Percent Restoration (+) or Suppression (-)
Procedure: In this assay, in which the in vitro model used was the Kennedy modification of the Jerne (or plaque) technique (J. C. Kennedy et al, Immunol., 20, p. 253 (1971)), the animal's humoral immune system is depressed artificially by the known immunosuppressant drug, 6-mercaptopurine (6-MP), and then the ability of a drug to either suppress it further or restore it towards normal is evaluated. The change in the number of plaques, which is a direct correlate of the change in the number of antibody secreting cells in the spleen, is used to measure this effect. For example, the compound of Example 11 results in greater than 100% restoration of the number of plaques and thus causes an immunoenhancement of the humoral system. In contrast, the compound of Example 28 results in about 24% further suppression of the number of plaques and thus behaves as an immunosuppressant.
of 6 MP plus 6.25 mg/Kg (i.p.)
^1 without 6MP treatment
^2 percent change from control (i.e., without 6MP)

[2] = test system: carrageenan-induced paw edemas; experiment: Anti-inflammatory assay, carrageenan-induced paw edema; assay type: in vivo, Male, Sprague-Dawley rats
Procedure: The anti-inflammatory properties of various compounds of this invention were determined by carrageenan-induced paw edemas of test rats. Male, Sprague-Dawley rats (Blue Spruce Farm) were ordered at 125-140 g, housed for one week, and allowed food and water ad libitum. At the time of the experiments, only rats weighing 160-200 g were used.
All compounds were dissolved or suspended in a 0.5% water solution of Methocel and orally administered to groups of six rats each. Control rats received Methocel only. Two hours later (unless otherwise stated), paw edema was induced by subcutaneous injection into the plantar surface of the right hind paw of 0.1 ml of a 1.0% homogenized suspension of carrageenan.
Immediately, the volume of the paw was measured by immersing it in mercury to above the lateral mateolus. The mercury in a glass cylinder 25 mm in diameter and 60 mm deep was connected at the bottom on the cylinder by a column of water to a Statham transducer (model P23BB), range 0-5 cm of mercury pressure. The volume was recorded electronically on a Beckman recorder, R511. Three hours later, the inflamed paw volume was measured again, and the change in volume was recorded for each group. The percent inhibition of edema was calculated using the control group paw volume as 100% edema, i.e., as (the change in edema in the control group less the change in edema in the test group) times 100 divided by the change in edema in the control group.

[3] = test system: murine marcophage cells; experiment: Chemotaxis assay (migration of macrophages toward complement-derived chemoattractant); assay type: cell-based
Procedure: In this assay, done according to the methods of R. Synderman et al., Infection & Immunity, 11, p. 488-492 (1975) and M. S. Meltzer et al., J. Natl. Cancer Inst., 54, p. 795-799 (1975), the ability of a drug substance to influence the movement of cells responding to a stimulus induced by some foreign substance or injury is determined. This is vitro assay utilizes a chemoattractant, derived from a component of the immunological system known as complement, to induce murine marcophage cells to migrate toward it. The effect of a drug substance on such movements can be measured by counting the cells. […] For example, the compound of Example 15 stimulates migration by 35.6% at 10^-8 molar concentration and is thus immunoenhancing.

[4] = test system: mouse hepatitis virus; experiment: Antiviral assay - hepatitis in mice; assay type: in vivo; details: once daily for 3 days; for Mean Liver Score: day 4, 0 (normal) to 4 (extreme discoloration); for Percent Survival: day 21
Procedure: Female mice weighing approximately 21-24 grams were inoculated with 0.1 ml of a mouse liver suspension containing mouse hepatitis virus, which liver suspension is at a dilution of 10^-5.5. Starting twenty-four hours post-virus inoculation, the animals were intraperitoneally ("i.p.") or orally administered the test compound(s) once daily for 3 days. On day 4, one third to one half of each group of mice were sacrificed and their liver removed for examination. Each liver was scored and assigned a number from 0 (normal liver) to 4 (extreme discoloration). The mean liver score per group was computed. The number of animals surviving until termination of the study (day 21) was also recorded. Anti-hepatitis activity is evidenced by increased survivor numbers and improved liver scores.

[5] = 50 mg/Kg p.o., dosed two hours before carrageenan
[6] = 12.5 mg/Kg i.p., control 2.6 (Examples 11, 16, 23), 3.4 (25, 26)
[7] = 12.5 mg/Kg i.p., control 5% (Examples 11, 16, 23), 6% (25, 26)
[8] = 25 mg/Kg i.p., control 2.6 (Examples 11, 23), 3.4 (25, 26)
[9] = 25 mg/Kg i.p., control 5% (Examples 11, 23), 6% (25, 26)

| Structure (SMILES) | change in vivo at 6.25 mg/kg [1] [%] | Percent Inhibition of carrageenan induced edema [2, 5] [%] | Mean Liver Score ([4]; 6.25 mg/Kg i.p., control 2.6) | Percent Survival ([4]; 6.25 mg/Kg i.p., control 5%) [%] | Mean Liver Score [4, 6] | Percent Survival [4, 7] [%] | other results |
| --- | --- | --- | --- | --- | --- | --- | --- |
| Clc1cccc(Cl)c1SC1CCCN2CC(c3ccccc3)N=C12 (centres unmarked) [Example 20, 2,3,5,6,7,8-Hexahydro-2-phenyl-8-(2,6-dichlorophenylthio)imidazo[1,2-a]pyridine hydrochloride] | -49 | – | – | – | – | – | Percent Inhibition of carrageenan induced edema ([2]; 100 mg/Kg p.o., dosed two hours before carrageenan, hydrochloride): 33.3% and 39.6% |
| CSC1CCN2CC(c3ccccc3)N=C12 (centres unmarked) [Example 1, 2,5,6,7-Tetrahydro-2-phenyl-7-methylthio-3H-pyrrolo[1,2-a]imidazole hydrochloride] | 72 | – | – | – | – | – | Percent Inhibition (-) or Enhancement (+) of migration ([3]; 10^-5 m): -25.4%; Percent Inhibition (-) or Enhancement (+) of migration ([3]; 10^-7 m): -8.8%; Percent Inhibition (-) or Enhancement (+) of migration ([3]; 10^-8 m): -17.5%; Percent Inhibition (-) or Enhancement (+) of migration ([3]; 10^-9 m): -29.7%; Percent Inhibition (-) or Enhancement (+) of migration ([3]; 10^-10 m): -68.2%; Percent Inhibition (-) or Enhancement (+) of migration ([3]; 10^-11 m): -36.8%; inhibition at 0.0001 µM ([3]; Mus musculus, Macrophage, 10^-10 molar concentration, read-out: inhibits migration): 68.2% |
| CC(C)SC1CCCN2CC(c3ccccc3)N=C12 (centres unmarked) [Example 18, 2,3,5,6,7,8-Hexahydro-2-phenyl-8-i-propylthioimidazo[1,2-a]pyridine sulfate] | 97 | 40.4 | – | – | – | – | – |
| COc1ccc(CSC2CCCN3CC(c4ccccc4)N=C23)cc1 (centres unmarked) [Example 15, 2,3,5,6,7,8-Hexahydro-2-phenyl-8-p-methoxybenzylthioimidazo[1,2-a]pyridinefumarate (1:1) salt] | 54 | – | – | – | – | – | Percent Inhibition (-) or Enhancement (+) of migration ([3]; 10^-5 m): +2.6%; Percent Inhibition (-) or Enhancement (+) of migration ([3]; 10^-7 m): +30.1%; Percent Inhibition (-) or Enhancement (+) of migration ([3]; 10^-8 m): +35.6%; Percent Inhibition (-) or Enhancement (+) of migration ([3]; 10^-9 m): +31.8%; Percent Inhibition (-) or Enhancement (+) of migration ([3]; 10^-10 m): +33.8%; Percent Inhibition (-) or Enhancement (+) of migration ([3]; 10^-11 m): -1.2%; activation at 0.01 µM ([3]; Mus musculus, Macrophage, 10^-8 molar concentration, read-out: stimulates migration): 35.6% |
| CSC1(SC)CCCN2CC(c3ccccc3)N=C21 (centres unmarked) [Example 16, 2,3,5,6,7,8-Hexahydro-2-phenyl-8,8-di(methylthio)imidazo[1,2-a]pyridine hydrochloride] | -25 | – | 1.5 | 60 | 2.0 | 90 | – |
| COC1(OC)CCCN2CC(c3ccccc3)N=C21 (centres unmarked) [Example 23, 2,3,5,6,7,8-Hexahydro-2-phenyl-8,8-dimethoxyimidazo [1,2-a]pyridine hydrochloride] | 64 | -3.2 | 1.7 | 40 | 1.0 | 70 | Percent Inhibition of carrageenan induced edema ([2]; 50 mg/Kg p.o., 20 hrs. predosed): 32.1%; Mean Liver Score [4, 8]: 1.3; Percent Survival [4, 9]: 50% |
| c1ccc(SC2(Sc3ccccc3)CCCN3CC(c4ccccc4)N=C32)cc1 (centres unmarked) [Example 17, 2,3,5,6,7,8-Hexahydro-2-phenyl-8,8-di(phenylthio)imidazo[1,2-a]pyridine fumarate] | – | 38.6 | – | – | – | – | percent change from control (i.e., without 6MP) ([1]; without 6MP treatment, 6.25 mg/Kg (i.p.) of compound): -37% |
| c1ccc(SC2CCCN3CC(c4ccccc4)N=C23)cc1 (centres unmarked) [Example 11, 2,3,5,6,7,8-Hexahydro-2-phenyl-8-phenylthioimidazo[1,2-a]pyridine sulfate (1:1) salt] | 125 | – | 2.0 | 10 | 1.8 | 40 | restoration of the number of plaques ([1]; with 6-MP): greater than 100%; Mean Liver Score [4, 8]: 1.8; Percent Survival [4, 9]: 40% |
